# Source: paper PMC4976335, “Miniaturizing VEGF: Peptides mimicking the discontinuous VEGF receptor-binding site modulate the angiogenic response” (Scientific Reports, 2016)
# Bridges are numbered along the chain shown (N, C = ends). [ ]: non-standard residue; d: D form. isopeptide = not defined here; Ahp = NCCCCCCC(=O)O
# B1: EP6 peptide (mini-VEGF; AcHx ligated to Hn6) (peptide)
# chain: Ac-EKFMDVYQLKYKGIC[Ahp]QIMRIKPHQGQHIGETS-NH2
# modifications: bridge 1-15 via isopeptide; reading uncertain; also: two peptides Hx (1-14, C-terminal amide after Ile14) and Hn (15-33) joined by isopeptide bond
# Assays:
# [1] = test system: VEGFR2; experiment: Antagonism of VEGF-stimulated VEGFR2 phosphorylation, western blot in PAEC overexpressing VEGFR2; type: cell-based
# [2] = test system: human umbilical vein endothelial cells (HUVECs); experiment: HUVEC proliferation assay (cell counting), with or without SU5614; type: cell-based; conditions: SU5614 (10 μM) alone, 0 ng/mL peptide, 72 h
# Protocol: As the activation of ERK1/2 pathway in ECs leads to DNA synthesis and cell proliferation, we evaluated whether EP3, EP5 and EP6 peptides were able to stimulate cell growth. A proliferation assay was performed on human umbilical vein endothelial cells (HUVECs). Cells in starvation medium were incubated with increasing concentrations (0.5, 5 and 50 ng/mL) of the selected peptides and VEGF, and cell number was counted after 72 h. […] Cell survival was evaluated by MTT assay in PAEC-VEGFR2 following stimulation with EP6 and equimolar concentration with control peptides for 48 h.
# The same proliferation assay was repeated in HUVEC in presence of the tyrosine kinase inhibitor SU5614 (Table 1). In the presence of the inhibitor, the proliferative effect of the EP peptides was suppressed, confirming that EP-induced proliferation was correlated to VEGFR2 phosphorylation.
# Human Umbilical Vein Endothelial Cells (HUVECs) were purchased from Lonza (Basel, Switzerland). All experiments were performed on low passage cell cultures. […]
# HUVECs were plated at density of 1500 cells/well in 96-well gelatin-coated microplates. […] Cell proliferation was evaluated as number of cells counted per well[35].
# [3] = test system: VEGFR2; experiment: VEGFR2 auto-phosphorylation (agonism), anti-phospho-Tyr western blot in PAEC overexpressing VEGFR2; type: cell-based
# [4] = test system: C57 black mice; experiment: In vivo Matrigel plug angiogenesis assay; conditions: 500 ng/plug, subcutaneous Matrigel, 10 days, implants inspected and haemoglobin content measured (Fig. 7B)
# Protocol: Figure 7 In vitro and in vivo angiogenic properties of EP peptides. (A) HUVECs were plated onto a layer of basement membrane matrix (Matrigel) and incubated at 37 °C for 18 h in the presence of EP3, EP5, EP6 and VEGF (50 ng/mL). After treatment, photomicrographs of tubular structures (Top) were quantified as angiogenic index, calculated as the number of complete circles counted/field by microscope image analysis (Bottom). *p < 0.05 vs basal control. (B) In vivo Matrigel angiogenesis assay was performed by injecting Matrigel solution containing 500 ng of the selected EP peptides into the dorsal midline region of C57 black mice. […] After 10 days Matrigel implants were recovered (Top) and analyzed for their haemoglobin content (bottom). *p < 0.05 and **p < 0.01 vs Matrigel alone.
# The pro-angiogenic activity of EP peptides was evaluated by an in vivo test, using Matrigel plugs loaded with EP3, EP5 or EP6 peptides or VEGF (500 ng/plug). […] The hemoglobin content of explanted plugs was measured by a spectrophotometric assay (Fig. 7B, Bottom).
# In vivo Matrigel angiogenesis assay was performed as previously described. […] Plugs were resuspended in 1 ml of Drabkin’s reagent for 18 h on ice and haemoglobin concentration was determined by absorbance at 540 nm and compared with a standard curve (Sigma-Aldrich, Milan, Italy).
# [5] = target: T1, second domain of VEGFR1 (VEGFR1D2) (UniProt P17948 129-229); experiment: NMR titration; 2D [15N,1H] HSQC chemical shift perturbation; 110 μM 15N-labeled VEGFR1D2, EP6 added from 27.5 to 550 μM; 20 mM Tris-HCl pH 7.5, 0.02% sodium azide, 10% 2H2O; 298 K; single-site fit, overall apparent KD as mean over the residues of the binding site; conditions: both partners purified
# T1 construct: VEGFR1 (vascular endothelial growth factor receptor 1), second domain; The shifts were mapped onto the NMR structure PDB 1QSV of VEGFR1D2; also called domain 2 of VEGFR1; source: recombinant; 15N-labeled for the HSQC titration
# T1 sequence (P17948 129-229): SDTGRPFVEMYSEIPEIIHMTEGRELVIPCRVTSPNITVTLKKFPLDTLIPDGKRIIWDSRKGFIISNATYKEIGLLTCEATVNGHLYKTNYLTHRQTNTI
molecule,measurement,setting,value
Cc1cc(C)c(/C=C2\C(=O)Nc3ccc(Cl)cc32)[nH]1 [SU5614],antagonism of VEGF-stimulated VEGFR2 phosphorylation (in words),"[1]; EP/control peptides 50 ng/mL 15 min, then VEGF 50 ng/mL 15 min, SU5614 10 μM (Fig. 2B)",inhibited
same,"VEGFR2 phosphorylation after VEGF, ∆ of fold increase respect to VEGF induced response","[1]; peptide 50 ng/mL pretreatment 15 min, then VEGF 50 ng/mL for additional 15 min, serum deprivation, SU5614 10 μM, western blot quantification, representative of three experiments",0.15 ± 0.05 ∆ of fold increase respect to VEGF induced response
same,"HUVEC proliferation, cells counted/well",[2],63.5 ± 8.7 cells counted/well
Vascular Endothelial Growth Factor [VEGF],"VEGFR2 phosphorylation, fold increase respect to Ctr","[3]; 50 ng/mL each, 15 min at 37 °C, PAEC overexpressing VEGFR2, western blot quantification, anti-phospho-Tyr, gels representative of three experiments",6.5 ± 1.3 fold increase respect to Ctr
same,VEGFR2 phosphorylation induced (in words),"[3]; 50 ng/mL, 15 min, PAEC overexpressing VEGFR2 (Fig. 2A)",induced VEGFR2 phosphorylation
same,blood vessel formation / angiogenesis in Matrigel plugs (in words),[4],blood vessel formation was observed
B1,Kd,[5],139 µM
